Test results reported in patent US20240335395A1, “COMPOSITIONS AND METHODS FOR PREVENTING AND/OR TREATING DISEASE ASSOCIATED WITH IL-23 EXPRESSION” (ALLSPIM, priority 2021, published 2024).

Tests used:
IL-23 [1] = experiment: IL-23 production (ELISA of supernatant) in LPS-stimulated THP-1 cell culture, Examples 1 and 8; type: cell-based, human
Description: The THP-1 cell line (TIB-202) was obtained from the American Type Culture Collection (ATCC, USA), grown in RPMI 1640 culture medium (Gibco) supplemented with 10% fetal bovine serum (Gibco, UK), 50 U/mL penicillin-streptomycin (Gibco), and 0.05 mM 2-Mercaptoethanol (Gibco). Cultured cells were plated into culture plates in appropriate volumes with a cell density of 500,000 cells/mL.
PCR was performed in duplicate using SYBR Green qPCR master mix (Takara Biomedical Technology Co., Ltd, Dalian, China) on an ABI 7500 Real-Time PCR System (Thermo, USA). The cycling program was as follows: denaturation at 95° C. for 15 s, 40 cycles of 95° C. for 15 s and extension at 60° C. for 60 s, followed by melt curve generation. The ΔΔCT method was used to quantify relative mRNA levels as described in User Bulletin #2 for the ABI PRISM 7700 Sequence Detection System (Applied Biosystems, 2001). The primer sequences used in this study are 5′-[…]-3′ (forward), 5′-[…]-3′ (reverse) for human IL-23p19 (SEQ ID NOs: 4 and 5, respectively); and 5′-ACAGTCCATGCCATCACTG-3′ (forward) and 5′-AGTAGAGGCAGGGATGATG-3′ for human GAPDH as a reference (SEQ ID NOs: 6 and 7, respectively). 24 hours after culture and treatments, supernatants were collected and IL-23 levels measured using the IL-23 Human Uncoated ELISA Kit (ThermoFisher Scientific Inc., USA) according to the manufacturer's instructions. A Varioskan LUX microplate reader (Thermo Fisher, USA) was used for the assay and 4-parameter logistic regression was used for data analysis. Two duplicates per sample were performed and results were averaged.
The anti-IL-23 activity of 2,4-D was compared with the commercially prescribed nonsteroidal anti-inflammatory drugs (NSAIDs:[…], Ibuprofen, and Aspirin) in the LPS-stimulated THP-1 cell culture system described above (Example 1)).

IL-10 = experiment: MSU-induced IL-10 in knee joint tissue (multiplex microassay); type: in vivo, mouse; settings: CLC 1 mg/kg
Description: (§1) Mice (six per group) were treated with 2,4-D (100 mg/kg or 20 mg/kg, i.p.), CLC (1 mg/kg or 0.2 mg/kg, i.p.), DEX (0.5 mg/kg or 0.1 mg/kg, i.p.), or vehicle (20% polyoxyethylenesorbitan monooleate (Tween 80) plus PBS) 30 min before intra-articular stimulus with MSU (100 μg/10 μL, i.a.). Six mice with intra-articular injection with PBS alone served as a negative control.
(§2) Induction of MSU-Induced Knee Joint Inflammation. Male ICR (CD-1) mice (35-45 g, 10-12 weeks) were purchased from VitalRiver Inc (Beijing, China) and were kept in an animal care facility under controlled temperature of 21±1° C., humidity, and on a light/dark cycle, with ad libitum access to water and standard laboratory chow diet. Animal care and handling procedures were approved by the Animal Ethics Committee of GZUCM (Guangzhou University of Chinese Medicine). All efforts were made to minimize animal suffering and to reduce the number of animals used. Joint inflammation was induced by the intra-articular (i.a.) administration of MSU (200 μg/20 μl) into the right and left knee joints of mice under inhaled 3% isoflurane anesthesia. Control animals received an injection (i.a.) of sterile PBS (20 μL).
(§3) Cytokine Measurement. Mice were anesthetized and sacrificed. Knee joints were collected and frozen in liquid nitrogen. Samples were then homogenized in 500 μl of buffer containing protease inhibitors, centrifuged (3600 rpm, 4° C., 15 min) and supernatants were used to determine Th1/Th2/Th17 cytokine levels using a multiplex microassay (Qantibody® mouse TH17 Array 1 kit, Cat. No.: QAM-TH17-1; RayBiotech, Norcross, GA). Results were expressed as picograms (pg) of cytokine/mg of tissue.
(§4) Statistical Analysis. […] For in vitro experiments, microassays were performed in quadruplicate. p<0.05 was considered significant (*p<0.05, **p<0.01, ***p<0.001).

IL-6 = experiment: MSU-induced IL-6 in knee joint tissue (multiplex microassay); type: in vivo, mouse; settings: 2,4-D 100 mg/kg, CLC 1 mg/kg, DEX 0.5 mg/kg
Description: as §1, §2, §3, §4

[2] = test system: MSU-induced knee joint edema; experiment: MSU-induced knee joint edema in mice; type: in vivo, mouse; settings: 20 h; high dose i.p.: 2,4-D 100 mg/kg, CLC 1 mg/kg, DEX 0.5 mg/kg
Description: as §1, with “2,4-D, isolated and purified from Chloranthus spicatus (purity≥98%), was purchased from BOC Science (Shirley, NY). Colchicine (CLC) (purity≥96%) and dexamethasone (DEX) (purity≥98%) were purchased from Sigma. Mice” for “Mice”
Preparation of monosodium urate crystal (MSU). MSU crystals were prepared as described previously (Ruiz-Miyazawa et al., 2017). Briefly, 800 mg of monosodium urate was dissolved in 155 ml of boiling milli-Q water containing 2N NaOH. After pH adjustment to 8.9, the solution was cooled gradually by stirring at room temperature and crystallized overnight at 4° C. Crystals were collected, and centrifuged at 3,000×g for 2 min at 4° C. The crystals were evaporated and sterilized by heating at 180° C. for 2 h and stored in a sterile environment until use. The load of endotoxin present in the MSU crystals was determined using a ToxinSensor^TM Single Test Kit (GenScript).
as §2
Evaluation of Knee Joint Edema. Knee joint edema was determined with a caliper (Mitutoyo) before (zero time), and after the intra-articular injection with MSU at the times indicated. Knee joint edema was determined for each mouse by the difference between the time points indicated on figures and the zero time (Ruiz-Miyazawa et al, 2017). The edema value is represented as Amm/joint.
Statistical Analysis. Data were analyzed using GraphPad Prism statistical software (GraphPad Software, Inc., United States-500.288, version 5.0). Results are presented as means±SEM or SD of measurements made on 6 mice per group, with statistical significance determined by two-way ANOVA, comparing each group to the control (“Model”) group. For in vitro experiments, microassays were performed in quadruplicate. p<0.05 was considered significant (*p<0.05, **p<0.01, ***p<0.001).

[3] = test system: MSU-induced leukocyte recruitment; experiment: MSU-induced leukocyte recruitment to the synovial cavity of knee joint; type: in vivo, mouse; settings: 20 h; 2,4-D 100 mg/kg, CLC 1 mg/kg, DEX 0.5 mg/kg
Description: as §1, with “2,4-D, isolated and purified from Chloranthus spicatus (purity≥98%), was purchased from BOC Science (Shirley, NY). Colchicine (CLC) (purity≥96%) and dexamethasone (DEX) (purity≥98%) were purchased from Sigma. Mice” for “Mice”
as §2
Histopathological Analysis. Knee joint was collected 20 h after MSU injection, fixed with 10% paraformaldehyde in PBS, and then decalcified for 10 days with EDTA and embedded in paraffin for histological analysis. […] Results are expressed as leukocytes infiltrate (cell/field) counted at the inflammatory foci within synovial cavity as indicative of synovitis. […]
Statistical Analysis. Data were analyzed using GraphPad Prism statistical software (GraphPad Software, Inc., United States-500.288, version 5.0). Results are presented as means±SEM or SD of measurements made on 6 mice per group, with statistical significance determined by two-way ANOVA, comparing each group to the control (“Model”) group. […]

IL-1ß = experiment: MSU-induced IL-1ß in knee joint tissue (multiplex microassay); type: in vivo, mouse; settings: 2,4-D 100 mg/kg, CLC 1 mg/kg, DEX 0.5 mg/kg
Description: as §1, §2, §3, §4

TNF-alpha = experiment: MSU-induced TNF-alpha in knee joint tissue (multiplex microassay); type: in vivo, mouse; settings: 2,4-D 100 mg/kg, CLC 1 mg/kg, DEX 0.5 mg/kg
Description: as §1, §2, §3, §4

IL-23 [4] = experiment: IL-23 production (ELISA) in LPS-stimulated THP-1 cells, 2,4-D versus other chalcones, Example 2; type: cell-based, human; settings: LPS-stimulated THP-1, 24 h
Source text: Molecules tested. Natural 2,4-D, isolated and purified from Chloranthus spicatus (purity HPLC≥98%, Cat. No.: 129742-43-2), was purchased from BOC Science (Shirley, NY). Synthetic 2,4-D (purity HPLC≥98%) was obtained from YIWEI Biotech (Shanghai, China). 2′-hydroxychalcone (2′-HC, purity HPLC≥98%, Cat. No.: 42224-53-3), 4-hydroxychlcone (4-HC, purity HPLC≥98%, Cat. No.: 20426-12-4), 2′,2-dihydroxychalcone (2′,2-DHC, purity HPLC≥98%, Cat. No.: IDF00045_ALDRICH), 2′,3-dihydroxychalcone (2′,3-DHC, purity HPLC≥98%, Cat No.: IDF00047_ALDRICH), 2′,4-dihydroxychalcone (2′,4-DHC, purity HPLC≥98%, Cat. No.: PH011685_ALDRICH), 2′,5′-dihydroxychalcone (2′,5′-DHC, purity HPLC≥98%, No.: IDF00046-1G), and 2′,4′,4-trihydroxychalcone (2′,4′4-THC, purity HPLC≥98%, No.: 38986_SIAL) were purchased from Sigma. 2′,4′-dihydroxychalcone (2′,4′-DHC, purity HPLC≥98%, Cat. No. AB151736) was purchased from abcr GmbH (Karlsruhe, Germany). Isobavachalcone (IBC), 4′-hydroxy-2′6′-dimethoxychalcone (HMC), 2-trifluoromethyl-2′-methoxychalcone (TFM) and Hydroxysafflor yellow A (HYA) were also tested.
Cell culture. THP-1 cells were cultured in RPMI 1640 culture medium (Gibco) supplemented with 10% fetal bovine serum (FBS; Gibco, UK.), 0.05 mM 2-mercaptoethanol, and 1% penicillin/streptomycin. Cells were used in exponential growth phase, with culture medium being replaced with fresh medium 1 day prior to the experiment. The following day, THP-1 cells were plated into 24-well culture plates with a cell density about 800,000 cells/mL and 2 mL per well. 10 ng/mL LPS was used to stimulate the THP-1 cells. RPMI 1640 medium containing 10% FBS and 1% P/S was used as a normal control (NC). 10 mM stock solutions of compounds in DMSO were diluted to 20 μM with complete culture medium just before use. Experiments were performed in quadruplicate.
Enzyme linked immune-sorbent assay (ELISA). At 24 hours, after centrifugation at 300 g for 10 min., 0.5 mL of supernatant was collected and stored at −80° C. until use. IL-23 levels were determined in culture supernatants as described in Example 1.

[5] = LPS-stimulated THP-1, Example 8

COc1cc(O)c(OC)c(O)c1C(=O)/C=C/c1ccccc1 [(E) isomer, 2′,4′-dihydroxy-3′,6′-dimethoxychalcone]
activity of (E) isomer relative to (Z) isomer (IL-23 [1]): 5 fold | inhibition of IL-23, (E) isomer compared with (Z) isomer (IL-23 [1]; LPS-stimulated THP-1 cell culture): greater

CC(=O)Oc1ccccc1C(=O)O [Aspirin, reference compound]
change of IL-23 production/release in supernatant (IL-23 [1]; [5]): no significant change

COc1cc2c(c(OC)c1OC)-c1ccc(OC)c(=O)cc1[C@@H](NC(C)=O)CC2 [CLC, Colchicine]
increase of the expression of IL-10 in knee joint tissue (IL-10): 1.5 fold | decrease of IL-6 in knee joint tissue (IL-6): no effect | reduction of MSU-induced knee joint edema [2]: 32.6% | reduction of MSU-induced leukocyte recruitment [3]: 1.6 fold | decrease of IL-1ß in knee joint tissue (IL-1ß): no effect | decrease of TNF-alpha in knee joint tissue (TNF-alpha): no effect

COc1cc(O)cc(OC)c1C(=O)C=Cc1ccccc1 [HMC, 4′-hydroxy-2′6′-dimethoxychalcone]
inhibition of IL-23 production (IL-23 [4]): do not inhibit

CC(C)=CCc1c(O)ccc(C(=O)/C=C/c2ccc(O)cc2)c1O [IBC, Isobavachalcone]
inhibition of IL-23 production (IL-23 [4]): do not inhibit

CC(C)Cc1ccc(C(C)C(=O)O)cc1 (centres unmarked) [Ibuprofen, reference compound]
reduction of IL-23 release in supernatant (IL-23 [1]; [5]): 20-25%

COc1cc(O)c(OC)c(O)c1C(=O)/C=C/c1ccccc1 [naturally isolated 2,4-D, 2′,4′-dihydroxy-3′,6′-dimethoxychalcone]
IC50 (IL-23 [4]; Homo sapiens, read-out: IC50 of inhibition of IL-23): ~2100 nM

Hydroxysafflor yellow A [HYA]
inhibition of IL-23 production (IL-23 [4]): do not inhibit
